Assay results: patent publication US12281329B2, “Compositions and methods for immune cell modulation in adoptive immunotherapies” (Fate Therapeutics, Inc., priority 2016, dated 2025)

Test system: T cells
Experiment: In vitro T cell culture compound screen, flow cytometry for CCR7+CD62L+ cells
Format: cell-based, human
Conditions: for CD8 Hit / CD4 Hit: 10 μM, about 6 days, anti-CD3/anti-CD28 beads, viability and cell number Z-score > −1; for CD8 Hit: hit: Z-score > +2 for percent or relative number CCR7+CD62L+ in viable CD8+; for CD4 Hit: hit: Z-score > +2 for percent or relative number CCR7+CD62L+ in viable CD4+
Text: In Vitro T Cell Culture. Fresh leukopaks (AllCells, Alameda, CA) were obtained from healthy donors, from which T cells were negatively selected using the EasySep Human T cell Enrichment Kit (Stem Cell Technologies, Vancouver, Canada). The freshly isolated T cells were aliquoted and cryopreserved. On the day the screens were initiated, T cells were thawed and washed into X-Vivo 15 with 5% human AB serum, IL-2, pen/strep, and additional supplements. Cells were dispensed into flat-bottom 384-well plates at 5×10^5 cells/ml with anti-CD3/Anti-CD28 dynabeads (ThermoFisher, Waltham, MA) at a 3:1 bead-to-cell ratio. Individual compounds were added at a final concentration of 10 μM to each well from column 3 to column 22 of each plate. Positive and negative controls were added to additional wells. Cells were incubated for about 6 days at 37 degrees with 5% CO2.
Flow Cytometry. On Day 6 of culture, cells were stained with a fixable viability marker and fluorophore-conjugated antibodies: CD3, CD4, CD8, CD45RA, CD45RO, CD62L, CCR7, CD27, and CD122 (BD Biosciences, San Jose, CA; and BioLegend, San Diego, CA). Fluorescent absolute counting beads (Spherotech, Lake Forest, IL) were added just prior to acquisition. Data acquisition was performed on a BD Fortessa X-20 (BD Biosciences) and data were analyzed using Treestar software (FlowJo, Ashland, OR) and Spotfire (Tibco, Boston, MA).
These cells are characterized by expression of CCR7 and CD62L. Therefore, cells co-expressing both of these identifying markers were evaluated. Within the viable CD4+ population and viable CD8+ population, the percent of cells co-expressing CCR7 and CD62L was determined. The expression of either CD62L or CCR7 on T cells, as indicative of the desired T cell subsets, have been described as having favorable functional characteristics for CAR-T cell therapy, and potentially other adoptive T cell therapies.
The number of events in each of these gates relative to the number of absolute counting beads in each sample was calculated, defining a relative measure of the absolute number of naïve, stem cell memory, or central memory T cells within the CD4+ and/or CD8+ populations. A z-Score relative to the screened compound samples within each 384-well plate was calculated for each of these four values: 1) percent CCR7+CD62L+ in CD4+, 2) percent CCR7+CD62L+ in CD8+, 3) absolute relative number of CCR7+CD62L+ in CD4+, and 4) absolute relative number of CCR7+CD62L+ in CD8+(FIGS. 1A and 1B). Z-scores were also calculated for the percent viability of all cells within each sample and the relative absolute number of cells within each sample. A “Z-Score” is a statistical measurement of a score's relationship to the mean in a group of scores. AZ-score of 0 means the score is the same as the mean. AZ-score can also be positive or negative, indicating whether it is above or below the mean and by how many standard deviations.

[1] = at least in viable CD8+ population
[2] = in both viable CD4+ population and viable CD8+ population

Row | Compound | CD8 Hit | number or ratio of cells co-expressing CCR7 and CD62L [1] | CD4 Hit | number or ratio of cells co-expressing CCR7 and CD62L [2]
1 | 2-Naphthacenecarboxamide, 7-chloro-4-(dimethylamino)-1,4,4a,5,5a,6,11,12a-octahy | CD8 | increased |  | 
2 | CCC(CO)Nc1nc(NCc2ccccc2)c2ncn(C(C)C)c2n1 (stereo in doubt) [Roscovitine, (S)-Isomer] |  | increased | CD4 | 
3 | CCCc1c(-c2ccc(O)cc2)nn(-c2ccc(O)cc2)c1-c1ccc(O)cc1 [1,3,5-tris(4-hydroxyphenyl)-4-propyl-1H-pyrazole] |  | increased | CD4 | 
4 | N.S=C(S)N1CCCC1 [1-Pyrrolidinecarbodithioic acid, ammonium salt] |  | increased | CD4 | 
5 | Nc1ncn([C@@H]2O[C@H](CO)[C@@H](O)[C@H]2O)c(=O)n1 [5-Azacytidine] | CD8 |  | CD4 | increased
6 | Sc1ncnc2nc[nH]c12 [6-Mercaptopurine] | CD8 |  | CD4 | increased
7 | Oc1c(Cl)cc(Cl)c2cccnc12 [8-Quinolinol, 5,7-dichloro-] | CD8 |  | CD4 | increased
8 | Oc1c(I)cc(Cl)c2cccnc12 [8-Quinolinol, 5-chloro-7-iodo-] | CD8 |  | CD4 | increased
9 | CC[n+]1c(/C=C/C=C2/N(C)c3ccccc3C2(C)C)sc2ccccc21.[I-] [AC-93253 iodide] | CD8 |  | CD4 | increased
10 | COc1ccc(-c2cc3nccn3c(Nc3ncccc3C(N)=O)n2)cc1OC [BAY 61-3606] |  | increased | CD4 | 
11 | COc1cc2nc(N3CCCN(C)CC3)nc(NC3CCN(Cc4ccccc4)CC3)c2cc1OC [BIX01294] |  | increased | CD4 | 
12 | CC[N+](C)(C)c1cccc(O)c1 [Edrophonium chloride] | CD8 | increased |  | 
13 | C[C@]12CC[C@@H]3c4ccc(O)cc4C[C@@H](CCCCCCCCC[S+]([O-])CCCC(F)(F)C(F)(F)F)[C@H]3[C@@H]1CC[C@@H]2O (some centres unmarked) [Fulvestrant] | CD8 | increased |  | 
14 | CC(C)C1CCC2(CO2)C2C(=O)OCC(C(=O)O)=CC12 (centres unmarked) [Heptelidic acid] | CD8 |  | CD4 | increased
15 | O=C(N/N=C/c1ccc([N+](=O)[O-])o1)c1ccc(O)cc1 [Nifuroxazide] | CD8 | increased |  | 
16 | C=CCc1cccc(/C=N/NC(=O)CN2CCN(Cc3ccccc3)CC2)c1O [PAC-1] |  | increased | CD4 | 
17 | Oc1cccc(-c2nc(N3CCOCC3)c3oc4ncccc4c3n2)c1 [PI-103] | CD8 |  | CD4 | 
18 | C=CC1=C(C)c2cc3[nH]c(cc4nc(cc5[nH]c(cc1n2)c(C)c5CCC(=O)O)C(CCC(=O)O)=C4C)c(C)c3C=C [Protoporphyrin IX disodium] |  | increased | CD4 | 
19 | CN(C)c1ccc(C=C2C(=O)Nc3ccccc32)cc1 [SU 4312] | CD8 | increased |  | 
20 | CN[C@H]1CC[C@@H](c2ccc(Cl)c(Cl)c2)c2ccccc21 [Sertraline] | CD8 |  | CD4 | 
21 | CCCc1nc2c(C)cc(-c3nc4ccccc4n3C)cc2n1Cc1ccc(-c2ccccc2C(=O)O)cc1 [Telmisartan] |  | increased | CD4 | 
22 | CC(C)(C)c1ccc(C(O)CCCN2CCC(C(O)(c3ccccc3)c3ccccc3)CC2)cc1 (centres unmarked) [Terfenadine] |  | increased | CD4 | 
